Experimental findings from article PMC7363133, “The structure and reactivity of the HoxEFU complex from the cyanobacterium Synechocystis sp. PCC 6803” (The Journal of Biological Chemistry, 2020) are described below.

The assay addresses T1, HoxEFU (Synechocystis sp. PCC 6803, UniProt P74024).
T1 construct: gene hoxF; heterotrimeric diaphorase subcomplex without HoxYH; Strep-II tag with Ser-Ala linker at C-terminus of HoxF; codon-optimised, pET21, E. coli BL21 deltaiscR; anaerobic purification; with Bidirectional [NiFe] hydrogenase diaphorase subunit HoxE; Bidirectional [NiFe] hydrogenase diaphorase subunit HoxU
T1 sequence (P74024 1-533): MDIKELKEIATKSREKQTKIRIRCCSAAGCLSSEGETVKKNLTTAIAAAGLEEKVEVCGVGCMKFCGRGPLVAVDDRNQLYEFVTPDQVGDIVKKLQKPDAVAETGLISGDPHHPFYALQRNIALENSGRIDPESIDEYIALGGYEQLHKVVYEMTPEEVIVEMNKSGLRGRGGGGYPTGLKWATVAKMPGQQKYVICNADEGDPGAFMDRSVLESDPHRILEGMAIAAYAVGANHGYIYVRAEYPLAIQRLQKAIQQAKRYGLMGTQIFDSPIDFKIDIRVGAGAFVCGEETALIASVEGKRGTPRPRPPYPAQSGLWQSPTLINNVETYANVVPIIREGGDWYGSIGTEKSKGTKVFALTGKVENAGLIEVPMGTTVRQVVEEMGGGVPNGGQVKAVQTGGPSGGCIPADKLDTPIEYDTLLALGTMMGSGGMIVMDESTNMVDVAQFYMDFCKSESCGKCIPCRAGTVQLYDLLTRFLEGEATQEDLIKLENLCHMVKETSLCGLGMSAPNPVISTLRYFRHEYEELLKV
T1 sequence (P74025 1-173 partner): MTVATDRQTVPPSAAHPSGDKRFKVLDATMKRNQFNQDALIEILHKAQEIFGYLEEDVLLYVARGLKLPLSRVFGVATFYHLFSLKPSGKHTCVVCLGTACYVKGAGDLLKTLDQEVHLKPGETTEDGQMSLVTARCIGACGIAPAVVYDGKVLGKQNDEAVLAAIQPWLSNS
T1 sequence (P74022 1-238 partner): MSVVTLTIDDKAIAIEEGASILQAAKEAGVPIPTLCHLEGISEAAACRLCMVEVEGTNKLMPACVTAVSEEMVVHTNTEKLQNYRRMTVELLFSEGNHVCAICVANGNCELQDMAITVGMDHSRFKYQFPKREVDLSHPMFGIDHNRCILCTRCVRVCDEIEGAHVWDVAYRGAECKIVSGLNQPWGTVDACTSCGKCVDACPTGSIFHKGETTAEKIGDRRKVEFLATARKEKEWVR
Briefly: intrinsic protein fluorescence/FRET titration, equilibrium binding isotherm. As to conditions: Hill fit (cooperative); excitation 285 nm, emission 348 nm.
Broadly, the Kd is a measure of binding affinity in units of concentration. A high value points to a looser complex. In the case of `NC(=O)C1=CN([C@@H]2O[C@H](COP(=O)(O)OP(=O)(O)OC[C@H]3O[C@@H](n4cnc5c(N)ncnc54)[C@H](O)[C@@H]3O)[C@@H](O)[C@H]2O)C=CC1` [NADH], the Kd is 32 µM.

Regarding `NC(=O)c1ccc[n+]([C@@H]2O[C@H](COP(=O)(O)OP(=O)(O)OC[C@H]3O[C@@H](n4cnc5c(N)ncnc54)[C@H](O)[C@@H]3O)[C@@H](O)[C@H]2O)c1` [NAD^+], binding was put at a Kd of 1350 ± 70 µM. Under `NC(=O)c1ccc[n+]([C@@H]2O[C@H](COP(=O)(O)OP(=O)(O)OC[C@H]3O[C@@H](n4cnc5c(N)ncnc54)[C@H](OP(=O)(O)O)[C@@H]3O)[C@@H](O)[C@H]2O)c1` [NADP^+] stands 1950 ± 270 µM.
